What was measured:
[1] = test system: LTB4 biosynthesis in human whole blood; assay: Inhibition of calcium ionophore-induced LTB4 biosynthesis in human whole blood; format: cell-based; conditions: for IC50: A23187 50 μM, 15 min preincubation, read-out: Inhibition of Leukotriene Biosynthesis IC50; for inhibition at 0.2 µM: read-out: Inhibition of Leukotriene Biosynthesis (% at 0.2 μM)
Description: Inhibition of leukotriene biosynthesis was evaluated in an assay, involving calcium ionophore-induced LTB4 biosynthesis expressed by human whole blood. Heparinized (20 U/mL) human blood (0.3 mL) was preincubated with test compound or vehicle for 15 min. at 37° C. Eicosanoid biosynthesis was initiated by adding calcium ionophore (A23187) in DMSO to a final concentration of 50 μM and terminated after 30 min. by rapid cooling of the blood in an ice bath and centrifuging at 3° C. for 10 min at 2500×g. The plasma was mixed with 4 volumes of methanol and allowed to stand for at least 30 min. at 3° C. prior to centrifuging at 1800×g for 10 min. The level of LTB4 in aliquots of the methanol-plasma extract was analyzed by radio-immunoassay or enyme-immunoassay techniques.

[2] = test system: leukotriene biosynthesis; assay: Inhibition of leukotriene biosynthesis in vivo after oral administration, rat peritoneal anaphylaxis model; conditions: 100 μmol/kg oral (gavage), 1 h before antigen challenge, read-out: % Inhibition of Leukotrienes at 100 μmol/kg oral dose
Description: Inhibition of the biosynthesis of leukotrienes in vivo after oral administration of representative test compounds of this invention was determined using a rat peritoneal anaphylaxis model in a similar manner as that described by Young and coworkers (Young, P. R.; Dyer, R. D.; Carter, G. W. Fed. Proc., Fed. Am. Soc. Exp. Biol. 1985, 44, 1185). In this model rats were injected intraperitoneally (ip) with rabbit antibody to bovine serum albumin (BSA) and three hours later injected ip with BSA to induce an antgen-antibody response. Rats were sacrificed 15 minutes after this challenge and the peritoneal fluids were collected and analyzed for leukotriene levels. Test compounds were administered by gavage one hour prior to the antigen challenge. Percent inhibition values were determined by comparing the treatment group to the mean of the control group. The results of this assay, for representative compounds of the present invention, at an oral dose level of […] are presented in Table 2, and at an oral dose of […] in Table 3.

SMILES	IC50 [1]	inhibition in vivo at 100 µmol/kg [2]	further results
Cc1ccccc1Oc1cccc([C@@H]2C[C@H]2CN(O)C(N)=O)c1 (relative stereo) [Example 170, N-(1-trans-(2-(3-(2-methylphenoxy)phenyl)cyclopropyl)methyl)-N-hydroxyurea]	–	94%	inhibition at 0.1 µM ([1]; 0.1 μM, read-out: Inhibition of Leukotriene Biosynthesis (% at 0.1 μM)): 89%
CNC(=O)N(O)C[C@@H]1C[C@H]1c1cccc(Oc2ccccn2)c1 (relative stereo) [Example 171, N-(1-trans-(2-(3-(2-pyridyloxy)phenyl)cyclopropyl)methyl)-N-hydroxy-N'-methylurea]	–	–	inhibition at 0.39 µM ([1]; 0.39 μM, read-out: Inhibition of Leukotriene Biosynthesis (% at 0.39 μM)): 40%
CNC(=O)N(O)C[C@@H]1C[C@H]1c1cccc(Oc2ccc(F)cc2)c1 (relative stereo) [Example 177, N-(1-trans-(2-(3-(4-fluorophenoxy)phenyl)cyclopropyl)methyl)-N-hydroxy-N'-methylurea]	–	–	inhibition at 0.2 µM [1]: 69%
NC(=O)N(O)C[C@@H]1C[C@H]1c1cccc(Oc2cccs2)c1 (relative stereo) [Example 178, N-(1-trans-(2-(3-(2-thienyloxy)phenyl)cyclopropyl)methyl)-N-hydroxyurea]	–	60%	inhibition at 0.2 µM [1]: 64%
CNC(=O)N(O)C[C@@H]1C[C@H]1c1cccc(Oc2ccc(C)cc2)c1 (relative stereo) [Example 179, N-(1-trans-(2-(3-(4-methylphenoxy)phenyl)cyclopropyl)methyl)-N-hydroxy-N'-methylurea]	–	61%	inhibition at 0.2 µM [1]: 61%
CC(=O)N(O)C[C@@H]1C[C@H]1c1cccs1 (relative stereo) [Example 190, N-(1-trans-(2-(2-thienyl)cyclopropyl)methyl)-N-hydroxyacetamide]	200 nM	–	–
CC(=O)N(O)C[C@@H]1C[C@H]1c1ccco1 (relative stereo) [Example 195, N-(1-trans-(2-(2-furanyl)cyclopropyl)methyl)-N-hydroxyacetamide]	190 nM	–	–
CNC(=O)N(O)C(C)[C@@H]1C[C@H]1c1ccc(C)s1 (stereo partly drawn) [Example 181, N-(1-trans-(2-(5-methyl-2-thienyl)cyclopropyl)ethyl)-N-hydroxy-N'-methylure]	600 nM	–	–
Cc1ccc([C@@H]2C[C@H]2C(C)N(O)C(N)=O)s1 (stereo partly shown) [Example 182]	690 nM	–	–
CNC(=O)N(O)C(C)[C@@H]1C[C@H]1c1ccco1 (stereo partly drawn) [Example 183, N-(1-trans-(2-(2-furanyl)cyclopropyl)ethyl)-N-hydroxy-N'-methylurea]	620 nM	–	–
CNC(=O)N(O)C(C)[C@@H]1C[C@H]1c1ccc(C)o1 (stereo partly drawn) [Example 184, N-(1-trans-(2-(5-methyl-2-furanyl)cyclopropyl)ethyl)-N-hydroxy-N'-methylurea]	850 nM	–	–
CNC(=O)N(O)C(C)[C@@H]1C[C@H]1c1ccsc1 (stereo partly drawn) [Example 186, N-(1-trans-(2-(3-thienyl)cyclopropyl)ethyl)-N-hydroxy-N'-methylurea]	470 nM	–	–
CNC(=O)N(O)C(C)[C@@H]1C[C@H]1c1ccoc1 (stereo partly drawn) [Example 191, N-(1-trans-(2-(3-furanyl)cyclopropyl)ethyl)-N-hydroxy-N'-methylurea]	830 nM	–	–
CC(=O)N(O)C(C)[C@@H]1C[C@H]1c1cccs1 (stereo partly drawn) [Example 196, N-(1-trans-(2-(2-thienyl)cyclopropyl)ethyl)-N-hydroxyacetamide]	980 nM	–	–
CC([C@@H]1C[C@H]1c1cccs1)N(O)C(N)=O (stereo partly drawn) [Example 197, N-(1-trans-(2-(2-thienyl)cyclopropyl)ethyl)-N-hydroxyurea]	1600 nM	–	–

Continued, in another order:

IC50 [1]	SMILES	inhibition in vivo at 100 µmol/kg [2]	further results
610 nM	NC(=O)N(O)C[C@@H]1C[C@H]1c1cccc(Oc2cnc3ccccc3c2)c1 (relative stereo) [Example 164, N-(1-trans-(2-(3-(3-quinonyloxy)phenyl)cyclopropyl)methyl)-N-hydroxyurea]	–	–
740 nM	CCOc1ccc(Oc2cccc([C@@H]3C[C@H]3CN(O)C(=O)NC3CC3)c2)cc1 (relative stereo) [Example 165]	–	–
110 nM	NC(=O)N(O)C[C@@H]1C[C@H]1c1cccc(Oc2nccs2)c1 (relative stereo) [Example 166, N-(1-trans-(2-(3-(2-thiazolyloxy)phenyl)cyclopropyl)methyl)-N-hydroxyurea]	91%	–
40 nM	CCOc1ccc(Oc2cccc([C@@H]3C[C@H]3CN(O)C(N)=O)c2)cc1 (relative stereo) [Example 167, N-(1-trans-(2-(3-(4-ethoxyphenoxy)phenyl)cyclopropyl)methyl)-N-hydroxyurea]	94%	–
50 nM	NC(=O)N(O)C[C@@H]1C[C@H]1c1cccc(Oc2cccnc2)c1 (relative stereo) [Example 168, N-(1-trans-(2-(3-(3-pyridyloxy)phenyl)cyclopropyl)methyl)-N-hydroxyurea]	99%	–
170 nM	CCCc1ccc(Oc2cccc([C@@H]3C[C@H]3CN(O)C(N)=O)c2)cc1 (relative stereo) [Example 169, N-(1-trans-(2-(3-(4-propylphenoxy)phenyl)cyclopropyl)methyl)-N-hydroxyurea]	98%	–
230 nM	CNC(=O)N(O)C[C@@H]1C[C@H]1c1cccc(Oc2cccc(C)c2)c1 (relative stereo) [Example 173, N-(1-trans-(2-(3-(3-methylphenoxy)phenyl)cyclopropyl)methyl)-N-hydroxy-N-methylurea]	–	–
140 nM	Cc1cccc(Oc2cccc([C@@H]3C[C@H]3CN(O)C(N)=O)c2)c1 (relative stereo) [Example 174, N-(1-trans-(2-(3-(3-methylphenoxy)phenyl)cyclopropyl)methyl)-N-hydroxyurea]	96%	–
200 nM	CCc1ccc(Oc2cccc([C@@H]3C[C@H]3CN(O)C(=O)NC)c2)cc1 (relative stereo) [Example 175, N-(1-trans-(2-(3-(4-ethylphenoxy)phenyl)cyclopropyl)methyl)-N-hydroxy-N'-methyl-hydroxyurea]	–	–
170 nM	CCc1ccc(Oc2cccc([C@@H]3C[C@H]3CN(O)C(N)=O)c2)cc1 (relative stereo) [Example 176, N-(1-trans-(2-(3-(4-ethylphenoxy)phenyl)cyclopropyl)methyl)-N-hydroxyurea]	87%	–
240 nM	CNC(=O)N(O)C[C@@H]1C[C@H]1c1ccoc1 (relative stereo) [Example 185, N-(1-trans-(2-(3-furanyl)cyclopropyl)methyl)-N-hydroxy-N'-methylurea]	–	–
210 nM	CNC(=O)N(O)C[C@@H]1C[C@H]1c1ccsc1 (relative stereo) [Example 187, N-(1-trans-(2-(3-thienyl)cyclopropyl)methyl)-N-hydroxy-N'-methylurea]	–	–
320 nM	NC(=O)N(O)C[C@@H]1C[C@H]1c1ccsc1 (relative stereo) [Example 188, N-(1-trans-(2-(3-thienyl)cyclopropyl)methyl)-N-hydroxyurea]	97%	–
230 nM	NC(=O)N(O)C[C@@H]1C[C@H]1c1ccoc1 (relative stereo) [Example 193, N-(1-trans-(2-(3-furanyl)cyclopropyl)methyl)-N-hydroxyurea]	93%	–
370 nM	NC(=O)N(O)C[C@@H]1C[C@H]1c1cccs1 (relative stereo) [Example 194, N-(1-trans-(2-(2-thienyl)cyclopropyl)methyl)-N-hydroxyurea]	97%	–
970 nM	NC(=O)N(O)C[C@@H]1C[C@H]1c1ccco1 (relative stereo) [Example 198, N-(1-trans-(2-(2-furanyl)cyclopropyl)methyl)-N-hydroxyurea]	90%	–
60 nM	NC(=O)N(O)C[C@@H]1C[C@H]1c1cnc(Oc2ccc(Cl)cc2)s1 (relative stereo) [Example 199, N-(1-trans-(2-(2-(4-chlorophenoxy)-5-thiazolyl)cyclopropyl)methyl)-N-hydroxyurea]	–	–
960 nM	CC([C@@H]1C[C@H]1c1cccc(Oc2ccccn2)c1)N(O)C(N)=O (single isomer, unassigned) [Example 172a, N-(1-trans-(2-(3-(2-pyridyloxy)phenyl)cyclopropyl)ethyl)-N-hydroxyurea]	–	–
250 nM	Cc1ccc(Oc2cccc([C@@H]3C[C@H]3C(C)CN(O)C(N)=O)c2)cc1 (stereo partly drawn) [Example 162, N-(2-trans-(2-(3-(4-methylphenoxy)phenyl)cyclopropyl)propyl)-N-hydroxyurea]	–	–
690 nM	Cc1ccc(Oc2cccc([C@@H]3C[C@H]3C(C)N(O)C(N)=O)c2)cc1 (stereo partly drawn) [Example 180, N-(1-trans-(2-(3-(4-methylphenoxy)phenyl)cyclopropyl)ethyl)-N-hydroxyurea]	85%	–

Source: US5120752A, “Cyclopropyl derivative lipoxygenase inhibitors” (Abbott Laboratories, priority 1990, dated 1992)
